Experimental data from publication PMC7853165 (Infectious Diseases and Therapy, 2021).
Read-outs that look alike come from different tables or passages of the source.

What was measured:
[1] = biological target: T1, angiotensin-converting enzyme 2 (ACE2) (Homo sapiens, UniProt Q9BYF1); test: SPR; format: binding
[2] = biological target: T1, angiotensin-converting enzyme 2 (ACE2); test: SPR; format: binding; remark: listed apart in the source

T1 sequence (Q9BYF1 18-805): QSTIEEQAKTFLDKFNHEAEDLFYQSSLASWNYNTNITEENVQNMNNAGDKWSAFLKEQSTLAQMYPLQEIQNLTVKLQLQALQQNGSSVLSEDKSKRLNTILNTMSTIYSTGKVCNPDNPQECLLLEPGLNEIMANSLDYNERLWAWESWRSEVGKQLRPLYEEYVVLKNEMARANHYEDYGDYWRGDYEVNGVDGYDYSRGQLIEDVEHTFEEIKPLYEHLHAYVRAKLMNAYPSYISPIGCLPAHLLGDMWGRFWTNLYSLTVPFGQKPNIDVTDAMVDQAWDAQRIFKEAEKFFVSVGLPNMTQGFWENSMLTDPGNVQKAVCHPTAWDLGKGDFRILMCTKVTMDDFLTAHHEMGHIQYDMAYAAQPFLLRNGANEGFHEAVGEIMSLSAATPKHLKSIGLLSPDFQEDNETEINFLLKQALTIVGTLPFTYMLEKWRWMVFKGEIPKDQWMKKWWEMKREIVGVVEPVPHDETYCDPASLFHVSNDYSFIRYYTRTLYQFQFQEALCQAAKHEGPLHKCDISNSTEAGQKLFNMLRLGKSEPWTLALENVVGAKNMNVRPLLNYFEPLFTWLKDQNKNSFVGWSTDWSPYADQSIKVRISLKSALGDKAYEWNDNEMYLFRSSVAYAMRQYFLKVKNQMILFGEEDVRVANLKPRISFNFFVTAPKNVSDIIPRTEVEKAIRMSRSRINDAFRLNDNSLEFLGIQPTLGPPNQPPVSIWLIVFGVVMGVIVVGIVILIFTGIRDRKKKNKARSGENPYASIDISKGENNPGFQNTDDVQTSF

| Kd [1] [µM] | Structure (SMILES) | Kd [2] [µM] |
| --- | --- | --- |
| 66 | CC(C)C[C@H](N[C@@H](Cc1cncn1Cc1cc(Cl)cc(Cl)c1)C(=O)O)C(=O)O [MLN-4760] |  |
|  | CC1=CC(=O)C(C(C)C)=CC1=O [thymoquinone] | 32.1 |
